Source: US6124269A, “2-Halo-6-O-substituted ketolide derivatives” (priority 1998, dated 2000)
In brackets after ≈: the same amount, converted by molar mass.

How the values were obtained:
Format in all cases: cell-based
[1] = system: Streptococcus pneumoniae ATCC 6303; test: In vitro agar dilution MIC, organism code XX; conditions: unit assumed
Experimental: (§1) Representative compounds of the present invention were assayed in vitro for antibacterial activity as follows: Twelve petri dishes containing successive aqueous dilutions of the test compound mixed with 10 mL of sterilized Brain Heart Infusion (BHI) agar (Difco 0418-01-5) were prepared. Each plate was inoculated with 1:100 (or 1:10 for slow-growing strains, such as Micrococcus and Streptococcus) dilutions of up to 32 different microorganisms, using a Steers replicator block. The inoculated plates were incubated at 35-37° C. for 20 to 24 hours. In addition, a control plate, using BHI agar containing no test compound, was prepared and incubated at the beginning and end of each test.
(§2) An additional plate containing a compound having known susceptibility patterns for the organisms being tested and belonging to the same antibiotic class as the test compound was also prepared and incubated as a further control, as well as to provide test-to-test comparability.
(§3) After incubation, each plate was visually inspected. The minimum inhibitory concentration (MIC) was defined as the lowest concentration of drug yielding no growth, a slight haze, or sparsely isolated colonies on the inoculum spot as compared to the growth control.

Candida albicans CCH 442 = test: In vitro agar dilution MIC, organism code TT; conditions: Table 1B, unit assumed
Experimental: as §1, §2, §3

[2] = system: Streptococcus pneumoniae 5979; test: In vitro agar dilution MIC, organism code ZZ; conditions: unit assumed
Experimental: as §1, §2, §3

[3] = system: Micrococcus luteus ATCC 4698; test: In vitro agar dilution MIC, organism code PP; conditions: Table 1B, in µg/mL (unit assumed)
Experimental: as §1, §2, §3

[4] = system: Streptococcus pyogenes 930; test: In vitro agar dilution MIC, organism code MM; conditions: unit assumed
Experimental: as §1, §2, §3

[5] = system: Staphylococcus aureus ATCC 6538P; test: In vitro agar dilution MIC, organism code AA; conditions: Table 1B, unit assumed
Experimental: as §1, §2, §3

[6] = system: Staphylococcus aureus NCTC10649M; test: In vitro agar dilution MIC, organism code EE; conditions: Table 1B, unit assumed
Experimental: as §1, §2, §3

[7] = system: Enterococcus faecium ATCC 8043; test: In vitro agar dilution MIC, organism code II; conditions: Table 1B, unit assumed
Experimental: as §1, §2, §3

[8] = system: Nocardia asteroides ATCC 9970; test: In vitro agar dilution MIC, organism code VV; conditions: Table 1B, in µg/mL (unit assumed)
Experimental: as §1
An additional plate containing a compound having known susceptibility patterns for the organisms being tested and belonging to the same antibiotic class as the test compound was also prepared and incubated as a further control, as well as to provide test-to-test comparability. Erythromycin A was used for this purpose.
as §3

Escherichia coli SS = test: In vitro agar dilution MIC, organism code RR; conditions: Table 1B, in µg/mL (unit assumed)
Experimental: as §1, §2, §3

[9] = system: Staphylococcus aureus CMX 553; test: In vitro agar dilution MIC, organism code FF; conditions: Table 1B, unit assumed
Experimental: as §1, §2, §3

[10] = system: Streptococcus pneumoniae 5649; test: In vitro agar dilution MIC, organism code ZZA; conditions: unit assumed
Experimental: as §1, §2, §3

[11] = system: Staphylococcus epidermidis 3519; test: In vitro agar dilution MIC, organism code HH; conditions: Table 1B, in µg/mL (unit assumed)
Experimental: as §1, §2, §3

[12] = system: Micrococcus luteus ATCC 9341; test: In vitro agar dilution MIC, organism code OO; conditions: Table 1B, unit assumed
Experimental: as §1, §2, §3

[13] = system: Staphylococcus aureus 1775; test: In vitro agar dilution MIC, organism code GG; conditions: Table 1B, unit assumed
Experimental: as §1, §2, §3

Escherichia coli JUHL = test: In vitro agar dilution MIC, organism code QQ; conditions: Table 1B, in µg/mL (unit assumed)
Experimental: as §1, §2, §3

Escherichia coli DC-2 = test: In vitro agar dilution MIC, organism code SS; conditions: Table 1B, unit assumed
Experimental: as §1, §2, §3

[14] = system: Streptococcus bovis A-5169; test: In vitro agar dilution MIC, organism code JJ; conditions: Table 1B, unit assumed
Experimental: as §1, §2, §3

[15] = system: Streptococcus pyogenes EES61; test: In vitro agar dilution MIC, organism code LL; conditions: unit assumed
Experimental: as §1, §2, §3

[16] = system: Staphylococcus aureus A5177; test: In vitro agar dilution MIC, organism code BB; conditions: Table 1B, in µg/mL (unit assumed)
Experimental: as §1, §2, §3

[17] = system: Staphylococcus aureus CMX 642A; test: In vitro agar dilution MIC, organism code DD; conditions: Table 1B, unit assumed
Experimental: as §1, §2, §3

[18] = system: Streptococcus pyogenes PIU 2548; test: In vitro agar dilution MIC, organism code NN; conditions: unit assumed
Experimental: as §1, §2, §3

[19] = system: Streptococcus pneumoniae GYR 1171; test: In vitro agar dilution MIC, organism code YY; conditions: Table 1B, unit assumed
Experimental: as §1, §2, §3

[20] = system: Mycobacterium smegmatis ATCC 114; test: In vitro agar dilution MIC, organism code UU; conditions: Table 1B, in µg/mL (unit assumed)
Experimental: as §1, §2, §3

[21] = system: Streptococcus agalactiae CMX 508; test: In vitro agar dilution MIC, organism code KK; conditions: Table 1B, unit assumed
Experimental: as §1, §2, §3

[22] = system: Staphylococcus aureus A-5278; test: In vitro agar dilution MIC, organism code CC; conditions: Table 1B, unit assumed
Experimental: as §1, §2, §3

[23] = system: Haemophilis influenzae DILL AMP R; test: In vitro agar dilution MIC, organism code WW; conditions: unit assumed
Experimental: as §1, §2, §3

Row | Structure (SMILES) | MIC ([1]; Table 1B) [mg/L] | MIC (Candida albicans CCH 442) [mg/L] | MIC ([2]; Table 1B) [mg/L] | MIC [3] | MIC ([4]; Table 1B) [mg/L] | MIC [5] [mg/L] | MIC [6] [mg/L] | MIC [7] [mg/L] | MIC [8] | MIC (Escherichia coli SS) | MIC [9] [mg/L] | MIC ([10]; Table 1B) [mg/L] | MIC [11] | MIC [12] [mg/L] | MIC [13] [mg/L] | MIC (Escherichia coli JUHL) | MIC (Escherichia coli DC-2) [mg/L] | MIC [14] [mg/L] | MIC ([15]; Table 1B) [mg/L] | MIC [16] | other results
1 | CC[C@H]1OC(=O)[C@@](C)(F)C(=O)[C@H](C)[C@@H](O[C@@H]2O[C@H](C)C[C@H](N(C)C)[C@H]2O)[C@](C)(OC/C=C/c2ccccc2)C[C@@H](C)C(=O)[C@H](C)[C@H]2NC(=O)O[C@@]21C [Example 7] | ≤ 0.004 | > 100 | 64 (≈ 87.3 µM) | 0.02 | 25 (≈ 34.1 µM) | 0.05 (≈ 0.0682 µM) | 0.05 (≈ 0.0682 µM) | 0.02 (≈ 0.0273 µM) | ≤ 0.005 | 0.1 | 0.05 (≈ 0.0682 µM) | 0.25 (≈ 0.341 µM) | 0.05 | ≤ 0.005 | 100 (≈ 136 µM) | 50 | 25 (≈ 34.1 µM) | ≤ 0.005 | ≤ 0.005 | 0.05 | MIC ([1]; Table 1D): ≤ 0.04 mg/L; MIC ([2]; Table 1D): 64 mg/L (≈ 87.3 µM); MIC ([4]; Table 1D): 16 mg/L (≈ 21.8 µM); MIC ([10]; Table 1D): 0.25 mg/L (≈ 0.341 µM); MIC ([15]; Table 1D): ≤ 0.04 mg/L; MIC [17]: 0.05 mg/L (≈ 0.0682 µM); MIC ([18]; Table 1B): 0.05 mg/L (≈ 0.0682 µM); MIC ([18]; Table 1D): 0.25 mg/L (≈ 0.341 µM); MIC [19]: ≤ 0.004 mg/L; MIC [20]: 0.05; MIC [21]: ≤ 0.005 mg/L; MIC [22]: 100 mg/L (≈ 136 µM); MIC ([23]; Table 1B): 2 mg/L (≈ 2.73 µM); MIC ([23]; Table 1D): 2 mg/L (≈ 2.73 µM)
2 | CC[C@H]1OC(=O)[C@@](C)(F)C(=O)[C@H](C)[C@@H](O[C@@H]2O[C@H](C)C[C@H](N(C)C)[C@H]2O)[C@](C)(OC/C=C/c2cnc3ccc(NC(=O)OC(C)(C)C)cc3c2)C[C@@H](C)C(=O)[C@H](C)[C@H]2NC(=O)O[C@@]21C [Example 8] | 0.06 (≈ 0.0667 µM) | > 100 | 16 (≈ 17.8 µM) | 0.39 | 12.5 (≈ 13.9 µM) | 0.39 (≈ 0.434 µM) | 0.39 (≈ 0.434 µM) | 0.2 (≈ 0.222 µM) | 0.78 | 6.2 | 0.39 (≈ 0.434 µM) | 1 (≈ 1.11 µM) | 0.39 | 0.05 (≈ 0.0556 µM) | > 100 | > 100 | > 100 | 0.05 (≈ 0.0556 µM) | 0.05 (≈ 0.0556 µM) | 0.39 | MIC [17]: 0.39 mg/L (≈ 0.434 µM); MIC ([18]; Table 1B): 0.39 mg/L (≈ 0.434 µM); MIC [19]: 0.06 mg/L (≈ 0.0667 µM); MIC [20]: 0.78; MIC [21]: 0.05 mg/L (≈ 0.0556 µM); MIC [22]: > 100 mg/L; MIC ([23]; Table 1B): 16 mg/L (≈ 17.8 µM)
3 | CC[C@H]1OC(=O)[C@@](C)(F)C(=O)[C@H](C)[C@@H](O[C@@H]2O[C@H](C)C[C@H](N(C)C)[C@H]2O)[C@](C)(OC/C=C/c2cnc3ccc(N)cc3c2)C[C@@H](C)C(=O)[C@H](C)[C@H]2NC(=O)O[C@@]21C [Example 9] | 0.015 (≈ 0.0188 µM) | > 100 | 0.25 (≈ 0.313 µM) | 0.02 | 0.2 (≈ 0.25 µM) | 0.02 (≈ 0.025 µM) | 0.05 (≈ 0.0626 µM) | 0.01 (≈ 0.0125 µM) | < 0.005 | 0.2 | 0.02 (≈ 0.025 µM) | 1 (≈ 1.25 µM) | 0.02 | ≤ 0.005 | > 100 | 25 | 25 (≈ 31.3 µM) | ≤ 0.005 | ≤ 0.005 | 0.02 | MIC [17]: 0.02 mg/L (≈ 0.025 µM); MIC ([18]; Table 1B): 0.1 mg/L (≈ 0.125 µM); MIC [19]: 0.015 mg/L (≈ 0.0188 µM); MIC [20]: 0.78; MIC [21]: ≤ 0.005 mg/L; MIC [22]: > 100 mg/L; MIC ([23]; Table 1B): 2 mg/L (≈ 2.5 µM)
4 | CC[C@H]1OC(=O)[C@@](C)(F)C(=O)[C@H](C)[C@@H](O[C@@H]2O[C@H](C)C[C@H](N(C)C)[C@H]2O)[C@](C)(OC/C=C/c2ccc3ncccc3c2)C[C@@H](C)C(=O)[C@H](C)[C@H]2NC(=O)O[C@@]21C [Example 10] | 0.015 (≈ 0.0191 µM) | > 100 | 0.25 (≈ 0.319 µM) | 0.1 | 0.39 (≈ 0.497 µM) | 0.1 (≈ 0.128 µM) | 0.1 (≈ 0.128 µM) | 0.05 (≈ 0.0638 µM) | 0.01 | 0.1 | 0.1 (≈ 0.128 µM) | 0.25 (≈ 0.319 µM) | 0.2 | 0.02 (≈ 0.0255 µM) | > 100 | 100 | 100 (≈ 128 µM) | 0.01 (≈ 0.0128 µM) | 0.02 (≈ 0.0255 µM) | 0.1 | MIC [17]: 0.1 mg/L (≈ 0.128 µM); MIC ([18]; Table 1B): 0.1 mg/L (≈ 0.128 µM); MIC [19]: 0.015 mg/L (≈ 0.0191 µM); MIC [20]: 0.1; MIC [21]: 0.05 mg/L (≈ 0.0638 µM); MIC [22]: > 100 mg/L; MIC ([23]; Table 1B): 2 mg/L (≈ 2.55 µM)
5 | CC[C@H]1OC(=O)[C@@](C)(F)C(=O)[C@H](C)[C@@H](O[C@@H]2O[C@H](C)C[C@H](N(C)C)[C@H]2O)[C@](C)(OC/C=C/c2cnc3ncccc3c2)C[C@@H](C)C(=O)[C@H](C)[C@H]2NC(=O)O[C@@]21C [Example 11] | ≤ 0.004 | > 100 | 0.125 (≈ 0.159 µM) | 0.05 | 0.1 (≈ 0.127 µM) | 0.05 (≈ 0.0637 µM) | 0.05 (≈ 0.0637 µM) | 0.05 (≈ 0.0637 µM) | 0.01 | 0.2 | 0.05 (≈ 0.0637 µM) | 0.25 (≈ 0.319 µM) | 0.05 | 0.01 (≈ 0.0127 µM) | 100 (≈ 127 µM) | 25 | 12.5 (≈ 15.9 µM) | 0.01 (≈ 0.0127 µM) | 0.39 (≈ 0.497 µM) | 0.05 | MIC [17]: 0.05 mg/L (≈ 0.0637 µM); MIC ([18]; Table 1B): 0.01 mg/L (≈ 0.0127 µM); MIC [19]: ≤ 0.004 mg/L; MIC [20]: 0.78; MIC [21]: 0.01 mg/L (≈ 0.0127 µM); MIC [22]: > 100 mg/L; MIC ([23]; Table 1B): 2 mg/L (≈ 2.55 µM)
